In ChEMBL document CHEMBL4033751, “Synthesis and biological evaluation of caffeic acid derivatives as potent inhibitors of α-MSH-stimulated melanogenesis” (Bioorg Med Chem Lett, 2017) one finds IC50 and viability data, which are given here for 32 compounds.

In data set [1] the test system is B16. Put plainly: Inhibition of alpha-MSH-stimulated melanogenesis in mouse B16 cells assessed as reduction in melanin formation. The format is functional, cell-based.
Data set [2] is described as follows: Cytotoxicity in mouse B16 cells assessed as cell viability at 10 uM by MTT assay. The format is cell-based. As to conditions: read-out: Activity. (Tetrazolium dyes change colour on reduction, which living cells bring about.)
Data set [3] can be described thus: Cytotoxicity in mouse B16 cells assessed as cell viability at 5 uM by MTT assay. The data set is classed as cell-based. As to conditions: read-out: Activity.
Data set [4] is described as follows: Cytotoxicity in mouse B16 cells assessed as cell viability at 40 uM by MTT assay. The format is cell-based. The following applies: read-out: Activity.
Data set [5] can be described thus: Cytotoxicity in mouse B16 cells assessed as cell viability at 20 uM by MTT assay. The following applies: read-out: Activity. The data set is classed as cell-based.
Data set [6] is described as follows: Cytotoxicity in mouse B16 cells assessed as cell viability at 2.5 uM by MTT assay. The format is cell-based. The following applies: read-out: Activity.

In general, IC50 refers to the midpoint of a concentration-inhibition curve. Regarding `O=C(/C=C/c1ccc(O)c(O)c1)Nc1cccc([N+](=O)[O-])c1`, the IC50 in data set [1] amounted to 1.9 µM. In addition, the viability at 10 µM in data set [2] was found to be 48%. In addition, the viability at 5 µM in data set [3] is 24 to 35%.

Turning to `O=C(/C=C/c1ccc(O)c(O)c1)Nc1ccc([N+](=O)[O-])cc1`, in data set [1], the IC50 came to 1.4 µM. The viability at 10 µM in data set [2] lay within 51 to 62%. The viability at 5 µM in data set [3] lay in the range of 30 to 35%.

In the case of `O=C(/C=C/c1ccc(O)c(O)c1)Nc1ccccc1`, the IC50 in data set [1] came out at 7.6 µM. The viability at 10 µM in data set [2] was 21%.

With `O=C(CCc1ccc(O)c(O)c1)O[C@@H]1C[C@](O)(C(=O)O)C[C@@H](O)[C@H]1O`, in data set [1], the IC50 was > 40 µM.

For the compound `COc1ccc(CNC(=O)/C=C/c2ccc(O)c(O)c2)cc1`, the half-inhibitory concentration (IC50) in data set [1] is 6.2 µM. Also, in data set [4], the viability at 40 µM lay in the range of 37 to 54%. In data set [5], the viability at 20 µM came out at 20%.

As for `O=C(/C=C/c1ccc(O)c(O)c1)N1CCNCC1`, in data set [1], the half-inhibitory concentration (IC50) was > 40 µM. Besides, the viability at 20 µM in data set [5] stood at 31%.

`O=C(/C=C/c1ccc(O)c(O)c1)NCc1ccccc1Cl`: the half-inhibitory concentration (IC50) in data set [1] amounted to 6.5 µM. For the same compound, in data set [4], the viability at 40 µM amounted to 0%.

With `CCCCc1ccc(NC(=O)/C=C/c2ccc(O)c(O)c2)cc1`, in data set [1], the IC50 came to 1.2 µM. Besides, the viability at 2.5 µM in data set [6] fell in the range of 33 to 49%. Besides, in data set [3], the viability at 5 µM was 68 to 96%.

In the case of `O=C(/C=C/c1ccc(O)c(O)c1)NCc1ccc(C(F)(F)F)cc1`, the half-maximal inhibitory concentration (IC50) in data set [1] amounted to 1.6 µM. Also, the viability at 10 µM in data set [2] was 39 to 48%. For the same compound, in data set [3], the viability at 5 µM came out at 26%.

Consider `O=C(/C=C/c1ccc(O)c(O)c1)NCc1ccc(Cl)cc1`, for which the half-inhibitory concentration (IC50) in data set [1] worked out at 1.8 µM. Moreover, the viability at 10 µM in data set [2] was in the range of 39 to 53%. Also, in data set [3], the viability at 5 µM stood at 23%.

In the case of `NS(=O)(=O)c1ccc(CNC(=O)/C=C/c2ccc(O)c(O)c2)cc1`, in data set [1], the IC50 was > 40 µM. Moreover, the viability at 40 µM in data set [4] was 0%.

Take `COc1ccccc1CNC(=O)/C=C/c1ccc(O)c(O)c1`: in data set [1], the IC50 was 7 µM. Moreover, in data set [4], the viability at 40 µM fell in the range of 35 to 46%. In data set [5], the viability at 20 µM is 20%.

With `CC(C)(C)OC(=O)N1CCN(C(=O)/C=C/c2ccc(O)c(O)c2)CC1`, the IC50 in data set [1] worked out at 5.8 µM. In data set [5], the viability at 20 µM worked out at 31%.

As to `Cc1ccccc1CNC(=O)/C=C/c1ccc(O)c(O)c1`, the half-inhibitory concentration (IC50) in data set [1] came out at 20 µM. For the same compound, the viability at 10 µM in data set [2] was found to be 25%. Besides, the viability at 20 µM in data set [5] lay in the range of 33 to 49%.

On to `CC(C)c1ccc(NC(=O)/C=C/c2ccc(O)c(O)c2)cc1`, for which, in data set [1], the concentration for half-maximal inhibition (IC50) was 3.4 µM. In data set [2], the viability at 10 µM came to 82%. Also, in data set [3], the viability at 5 µM stood at 15%.

Consider `O=C(/C=C/c1ccc(O)c(O)c1)NC1CCCCC1`, for which the 50% inhibitory concentration (IC50) in data set [1] is 2.8 µM. Further, the viability at 10 µM in data set [2] worked out at 23%.

Regarding `O=C(/C=C/c1ccc(O)c(O)c1)NCc1ccccc1C(F)(F)F`, in data set [1], the IC50 came to 1.8 µM. In addition, in data set [2], the viability at 10 µM was in the range of 33 to 49%. Besides, the viability at 5 µM in data set [3] fell in the range of 22 to 28%.

On to `O=C(/C=C/c1ccc(O)c(O)c1)NCc1cccc(C(F)(F)F)c1`, for which the concentration for half-maximal inhibition (IC50) in data set [1] is 1.4 µM. For the same compound, in data set [2], the viability at 10 µM was in the range of 29 to 47%. For the same compound, the viability at 5 µM in data set [3] came to 24%.

Regarding `O=C(/C=C/c1ccc(O)c(O)c1)Nc1cccc(C(F)(F)F)c1`, in data set [1], the 50% inhibitory concentration (IC50) came to 1.4 µM. Besides, the viability at 2.5 µM in data set [6] lay in the range of 22 to 36%. For the same compound, the viability at 5 µM in data set [3] fell in the range of 60 to 82%.

As to `O=C(/C=C/c1ccc(O)c(O)c1)NCc1cccc(Cl)c1`, the IC50 in data set [1] turned out to be 6 µM. In addition, the viability at 10 µM in data set [2] amounted to 22%. Also, the viability at 20 µM in data set [5] was 59 to 62%.

Take `O=C(/C=C/c1ccc(O)c(O)c1)NC1CCCC1`: the IC50 in data set [1] was 30 µM. Besides, the viability at 40 µM in data set [4] stood at 0%.

As to `Cc1cccc(CNC(=O)/C=C/c2ccc(O)c(O)c2)c1`, in data set [1], the half-inhibitory concentration (IC50) stood at 3 µM. Besides, the viability at 10 µM in data set [2] was found to be 20%. Moreover, the viability at 20 µM in data set [5] was determined as 45%.

As for `O=C(/C=C/c1ccc(O)c(O)c1)Nc1ccc(C(F)(F)F)cc1`, the IC50 in data set [1] was determined as 1.4 µM. Besides, the viability at 10 µM in data set [2] lay in the range of 77 to 90%. In addition, in data set [3], the viability at 5 µM lay within 56 to 58%.

Turning to `Cc1ccc(CNC(=O)/C=C/c2ccc(O)c(O)c2)cc1`, in data set [1], the concentration for half-maximal inhibition (IC50) is 3.7 µM. Further, the viability at 10 µM in data set [2] amounted to 20%. For the same compound, the viability at 20 µM in data set [5] fell in the range of 22 to 30%.

Take `CC(=O)Oc1ccc(/C=C/C(=O)OC2CCCCC2)cc1OC(C)=O`: in data set [1], the 50% inhibitory concentration (IC50) came out at 0.2 µM. Besides, the viability at 2.5 µM in data set [6] was found to be 24%.

As for `Cc1n[nH]c(NC(=O)/C=C/c2ccc(O)c(O)c2)c1-c1ccc(Br)cc1`, the IC50 in data set [1] amounted to 1 µM. The viability at 2.5 µM in data set [6] lay in the range of 29 to 56%. Further, in data set [3], the viability at 5 µM is 68 to 93%.

Take `O=C(/C=C/c1ccc(O)c(O)c1)OC1CCCCC1`: the IC50 in data set [1] was determined as 7 µM. The viability at 10 µM in data set [2] was determined as 30%.

Turning to `O=C(/C=C/c1ccc(O)c(O)c1)NCc1ccccc1`, the concentration for half-maximal inhibition (IC50) in data set [1] was 8 µM. In addition, the viability at 10 µM in data set [2] worked out at 23%.

Take `O=C(/C=C/c1ccc(O)c(O)c1)N1CCCCC1`: the 50% inhibitory concentration (IC50) in data set [1] turned out to be 24 µM. In data set [4], the viability at 40 µM was 0%.

For the compound `OC[C@H]1O[C@@H](Oc2ccc(O)cc2)[C@H](O)[C@@H](O)[C@@H]1O` [ARBUTIN], the concentration for half-maximal inhibition (IC50) in data set [1] was 400 µM.

For the compound `COC(=O)[C@]1(O)C[C@@H](O)[C@@H](O)[C@H](OC(=O)/C=C/c2ccc(O)c(O)c2)C1` [CHLOROGENIC ACID METHYL ESTER], the IC50 in data set [1] is > 40 µM.

Regarding `O=c1cc(CO)occ1O` [KOJIC ACID], the half-maximal inhibitory concentration (IC50) in data set [1] worked out at 57 µM.
